Article PMC9786170, “The Pharmacological Potential of Novel Melittin Variants from the Honeybee and Solitary Bees against Inflammation and Cancer” (Toxins, 2022)
“Also recorded” adds a separate entry of the source.

Assays:
HMEC-1 cells = assay: Proliferation assay (crystal violet) in HMEC-1 cells; type: cell-based, human; settings: HMEC-1, 25 µg/mL, 72 h, n = 2–3
Experimental: Figure 1 Toxicity characterization of cells treated with melittin peptides. (A,B) For the viability assay, RAW264.7 (A) or HEK293T (B) cells were treated with bee venom compounds in the indicated concentrations for 24 h. Cells were incubated with WST-8 and the formed formazan was detected by absorbance measurements. (C) For the proliferation assay, HMEC-1 cells were grown in low density and treated after 24 h with the indicated peptide (25 µg/mL) for 72 h. Cells were stained with crystal violet solution. The amount of DNA-bound crystal violet was detected by absorbance measurements. (D) The number of sub-diploidic cells was determined by staining with propidium iodide (PI) and quantified to assess apoptosis of HUVECs. Data are expressed as mean ± SEM. (A) n = 3, (B) n = 4, (C) n = 2–3, (D) n = 2. * p ≤ 0.05 versus control.
(§1) HMECs (2000 cells/well) were seeded into collagen-coated 96-well plates and grown for 24 h. Then, they were treated with melittin peptides. […] Absorbance was measured at 590 nm using a plate reader (Infinite F200Pro, Tecan, Männedorf, Switzerland). The proliferation percentage was calculated by normalizing to the untreated control (24 h) and compared to the DMSO control (0.03%) of 72 h incubation. […]

RAW264.7 cells = assay: NO inhibition assay (LPS-stimulated, Griess); type: cell-based, murine; settings: RAW264.7, peptide 30 min, then 100 ng/mL LPS 24 h
Experimental: Figure 4 Influence of melittin derivates on inflammation-associated cell functions. (A,B) For the NO induction assay (A), RAW264.7 cells were treated with melittin peptides in the indicated concentrations for 24 h. For the NO inhibition assay (B), RAW264.7 cells were pretreated with melittin peptides in the indicated concentrations for 30 min and then stimulated with 100 ng/mL LPS for 24 h. NO was detected in the supernatant using the Griess method. […] THP-1 cell adhesion under static conditions. HUVECs were grown to confluence, preincubated with bee venoms for 30 min, and activated with TNF (10 ng/mL) for 24 h. For the leukocyte adhesion assay, untreated THP-1 cells were stained with CellTracker Green and were allowed to adhere to the treated HUVECs for 5 min. The adhesion of leukocytes onto Ecs was quantified by fluorescence measurements for all cell adhesion experiments. Data are expressed as means ± SEM, (A,B) n = 3, (C) n = 2. * p ≤ 0.05 vs. TNF (positive) control.
2 × 10^4 RAW264.7 macrophages/well were plated in a 96-well plate and cultured for 24 h at 37 °C. To investigate if the melittin peptides induce nitrogen oxide (NO) synthesis, the melittin peptides, control (DMSO), and positive control (100 ng/mL lipopolysaccharide (LPS)) were added. To evaluate the effect of melittin peptides on inhibiting NO synthesis, the cells were pre-incubated with peptides or control (DMSO) for 30 min before 100 ng/mL LPS were added. After 24 h supernatants were collected and stored at −80 °C.
NO was determined with the Griess method. Briefly, for the standard curve, different concentrations of sodium nitrite (0–50 µM) were prepared in the medium. A total of 80 µL cell supernatant or standard sample were added to a 96-well microplate and subsequently, 20 µL sulfanilamide solution (120 mg sulfanilamide in 30 mL 1 N hydrochloric acid) and 20 µL naphthylenediamine solution (180 mg N-(1-naphthyl)ethylenediamine dihydrochloride in 30 mL water) were added. After 15 min of incubation, the absorbance (540 nm) was measured with the EnSpire Plate Reader (PerkinElmer, Waltham, MA, USA). For the induction assay, the NO levels of the melittin peptides-treated samples were related to the DMSO-treated sample. For the inhibition assay, the NO levels of the melittin peptides-treated cells were correlated with the LPS-treated samples.

non-cancer cells = assay: Viability of non-cancer cells (RAW264.7, HEK293T, HMEC, HUVEC), overall statements; type: cell-based
Excerpt: First, we studied the activity of the melittin peptides on the viability of non-cancer cells. The toxicity of all melittin variants was investigated in monocyte/macrophage-like cells (RAW264.7), human embryonic kidney 293 cells (HEK293T), human microvascular endothelial cells (HMEC), and primary human umbilical vein endothelial cells (HUVECs).
For assessing the cytotoxicity of all peptides, various cell types and assays were utilized. To determine the cell viability of HEK293T and RAW246.7 cells, the Orangu^TM assay (Cell Guidance Systems Ltd., Cambridge, UK) was used, as previously described. 2 × 10^5 HEK293T or 2 × 10^5 RAW246.7 were seeded in 96-well plates. […] After incubation, absorbance was measured at a wavelength of 450 nm with a reference at 650 nm at an EnSpire 2300 Multimode Plate Reader (Perkin Elmer, Lübeck, Germany). To calculate cell viability, the absorbance of vehicle-treated cells was set to 100%, and the melittin derivates-treated samples were correlated to them.
as §1, with “h.” for “h. Then, they were treated with melittin peptides.”

Substance	proliferation (HMEC-1 cells)	inhibition of LPS-induced NO synthesis (RAW264.7 cells; n = 3, listed as Melittin)	inhibition of LPS-induced NO synthesis (RAW264.7 cells; n = 3, listed as melittin)	reduction of viability (non-cancer cells; Discussion, cell line not given)	inhibition of LPS-induced NO synthesis (RAW264.7 cells; n = 3)	viability of non-cancer (healthy) cells (non-cancer cells; summary statement, Figure 6)
melittin [Melt, reference compound]	proliferation was hindered	prevent the LPS-induced NO release	prevented LPS-induced NO synthesis in a concentration-dependent manner	90%	–	–
xylopin [Xac4]	proliferation was augmented	–	–	–	prevented LPS-induced NO synthesis in a concentration-dependent manner; also recorded: reducing the inflammation-associated interaction of endothelial cells with leukocytes and NO synthesis	without harming healthy cells
